Data reported in patent US10761087B2, “Choroidal neovascularization suppressor or drusen formation suppressor, and method for assessing or screening for same” (Link Genomics, Inc., priority 2015, dated 2020).
Where two headings read alike, the source gives them in different places.

Tests used:
mouse = test: In vivo model test for drusen suppression (TNF-a induced drusen-like structure in retinal region); settings: oral, 14 days; oxaprozin 600 mg/kg/day, epalrestat 600 mg/kg/day, zaltoprofen 40 mg/kg/day
Protocol: In the vicinity of the retina in the posterior segment of eyeball of mouse, 400 ng of Recombinant Mouse TNF-a (R&D Systems, # 410-MT) was administered. After two weeks from administration, an eye ball was extracted, and a formalin-fixed, paraffin-embedded block was prepared. The tissue sample was deparaffinized by treating three times with xylene for 5 minutes each, twice with 100% ethanol for 1 minute each, with 90% ethanol for 1 minute, with 80% ethanol for 1 minute, with 70% ethanol for 1 minute, and with water for 5 minutes. Staining was conducted with a Mayer' s hematoxylin solution for 4 minutes, and with an eosin liquid for 1 minute. After treating for 5 minutes in flowing water, treatments were conducted with 70% ethanol for 1 minute, with 80% ethanol for 1 minute, with 90% ethanol for 1 minute, twice with 100% ethanol for 1 minute each, and three times with xylene for 5 minutes each, followed by mounting with Marinol. After drying for 15 minutes or more at room temperature, the untreated RPE cells, and the RPE cells in which inflammation is induced were observed. An eyeball tissue segment was prepared from a block. After incubation for 30 minutes in a gas-phase incubator at 56° C., the tissue sample was deparaffinized by treating three times with xylene for 5 minutes each, twice with 100% ethanol for 1 minute each, with 90% ethanol for 1 minute, with 80% ethanol for 1 minute, with 70% ethanol for 1 minute, and with water for 5 minutes. After removing a melanin pigment in tissues using Delicate Melanin Bleach Kit for Special Stains and IHC (Polysciences, # 24909-1) according to the manufacturer's protocol, a microwave treatment using a citrate buffer pH 6.0 was conducted for 10 minutes to activate the antigen. After standing still for 30 minutes at room temperature, treatments were conducted with PBS for 5 minutes, with a 3% hydrogen peroxide/PBS solution for 5 minutes, and with PBS for 5 minutes to inactivate an endogenous peroxidase. The sample was stood still in a 3% BSA/PBS solution for 30 minutes at room temperature to block the tissues. As primary antibodies, an anti-E-Cadherin antibody (BD Biosciences, # 610182) that was 500-fold diluted with a 1.5% BSA/PBS solution, and an anti-Cytokeratin antibody (Sigma, # C2931) that was 1000-fold diluted, and an anti-Fibronectin antibody (abcam, # 45688) that was 1000-fold diluted, and an anti-Vimentin antibody (Cell signaling Technology, # 5741) that was 100-fold diluted were added in an amount of 200 μL per one tissue, and caused to react with the tissues for 17 hours at 4° C. The tissues reacted with the primary antibodies were washed three times with PBS for 5 minutes each, then caused to react with a secondary antibody (a Mouse on Mouse (M. O. M.) Elite Peroxidase Kit (Vector Laboratories, # PK-2200) for the anti-E-Cadherin antibody and the anti-Cytokeratin antibody, and a VECTASTAIN Elite ABC Rabbit IgG Kit (Vector Laboratories, # PK-6101) for the anti-Fibronectin antibody and the anti-Vimentin antibody) for 30 minutes at room temperature, then washed three times with PBS for 5 minutes each, and then subjected to an ABC reaction for 30 minutes at room temperature according to the manufacturer's protocol. After washing the tissues three times with PBS for 5 minutes each, color development was caused for 3 minutes at room temperature using an ImmPACT AMEC Red Peroxidase (HRP) Substrate (Vector Laboratories, # SK-4285). The color-developed tissues were stained by using a New hematoxylin Type M (MUTO PURE CHEMICALS CO., LTD., # 30141), and then stood still in flowing water for 3 minutes, and treated with 70% ethanol for 1 minute, with 80% ethanol for 1 minute, with 90% ethanol for 1 minute, twice with 100% ethanol for 1 minute each, and three times with xylene for 5 minutes each, and mounted with the use of Marinol. After drying for 15 minutes or more at room temperature, observation was conducted. […]

VEGF = test: Change in expression of VEGF mRNA (real-time PCR) in EMT-induced RPE cells; format: cell-based, human; settings: EMT-induced ARPE-19, 48 hours, compound at Cmax, ½ of Cmax or ¼ of Cmax
Protocol: RPE cells (ARPE-19) were seeded on a plate, and incubated for 5 days at 37° C. […] Each compound was added in a concentration of Cmax, ½ of Cmax or ¼ of Cmax. As a control, a sample to which a compound to be assessed (test drug) is not added was used. The collected cells were washed with PBS, and 350 μL of an RLT buffer was added to prepare a lysate for RNA extraction. Total RNA was extracted from the lysate using an RNeasy Micro kit (QIAGEN, #74004), and from 2 μg of the obtained RNA, cDNA was prepared using a SuperScript III First-Strand Synthesis SuperMix for qRT-PCR (Invitrogen, #11752-250). Using 50 ng of the obtained cDNA as a template, a real-time PCR (ABI Prism 7500 Sequence Detection System) was conducted according to the manufacturer's protocol, and expression of mRNA of each gene was quantified. Specific primers for respective genes were purchased from Invitrogen. Ct (Threshold Cycle) value of each gene was calculated as a percentage to a non-treated sample after normalization by endogenous control. For each result, a significant test (Student t test) was conducted, and when p<0.05, the result was marked with “*”, and when p<0.01, the result was marked with “**”.
The results are shown in FIG. 16 or FIG. 17, respectively.
The VEGF suppressive effect was assessed using the cell model as described above in the same manner as in Test example 2-3. The results are shown in FIG. 18 to FIG. 20, respectively.

[1] = cited from earlier work
[2] = Table 3, from the interview form and the package insert of each drug, read-out: Cmax
[3] = quoted in Test examples 2-3, 2-4, 2-5, read-out: Cmax (as quoted in the VEGF test examples)

| SMILES | Formation of a drusen-like structure (HE staining) (mouse) | Immunostaining of E-Cadherin in retinal epithelial cells (mouse) | Immunostaining of Fibronectin (mouse) | Shape of retinal pigment epithelial cells (mouse) | Enhancement of VEGF mRNA expression by EMT induction (VEGF) | Enhancement of VEGF mRNA expression by EMT induction (VEGF; listed as oxaprozin) | Cmax ([1]; Alvo tablet Interview Form, repeated-dose administration, read-out: Cmax) | Cmax [1, 2] | Cmax [1, 3] | Enhancement of VEGF mRNA expression by EMT induction (VEGF; listed as zaltoprofen) | Cmax ([1]; Pharmaceutical Interview Form, single-dose administration, read-out: Cmax) | Cmax ([1]; Soleton tablet 80 Interview Form, single-dose administration, depending on the kind of the additive, read-out: Cmax) |
| --- | --- | --- | --- | --- | --- | --- | --- | --- | --- | --- | --- | --- |
| O=C(O)CCc1nc(-c2ccccc2)c(-c2ccccc2)o1 [Oxaprozin, oxaprozin] | apparently suppressed | strongly positive staining was observed between cells | the signal strength of staining was small | cells keeping a cubic shape were abundantly observed | suppressed enhancement of VEGF expression in a concentration dependent manner | suppress enhancement of mRNA expression of VEGF | 341 µM | 341 µM | 341 µM | – | – | – |
| CC(C(=O)O)c1ccc2c(c1)CC(=O)c1ccccc1S2 (stereo not shown) [Zaltoprofen, zaltoprofen] | apparently suppressed | strongly positive staining was observed between cells | the signal strength of staining was small | cells keeping a cubic shape were abundantly observed | suppressed enhancement of VEGF expression in a concentration dependent manner | – | – | 20.4 µM | 20.4 µM | suppress enhancement of mRNA expression of VEGF | 20.4 µM | 16.8 µM |
